In test [1] the test system is alpha-carbonic anhydrase (CA) esterase activity in mussel mantle edge. Nature of the test: Esterase (carbonic anhydrase) activity in mantle after ex-vivo incubation. The settings on record: after exposure to CALCIIa 10 μM or ouabain 2 mM; 4-Nitrophenyl acetate substrate; n = 6. Set-up: species or system Mytilus galloprovincialis. The method, then: (A) Esterase activity and (B) Acid phosphatase activity. Enzyme activity was quantified in protein extracts from the mantle of control or challenged samples that were incubated with the mussel CALCIIa peptide. Values represent the mean ± SEM (CA, n = 6 and TRAP, n = 10) performed in duplicate. Prism GraphPad v5 software was used to assess the significance of the differences between the groups using One-way Anova and Tukey’s multiple comparison test. […] C - control; P - peptide (10 μM); O - ouabain (2 mM), OP - ouabain (2 mM) and peptide (10 μM); PreOP - pre stimulation for 1 hour with the peptide and 4 hours incubation with OP.
The posterior mantle edge region of the Mediterranean mussel was collected and washed in culture medium. The composition of the culture medium was as described in[91] […] The culture medium was supplemented with heat inactivated 2% FBS (SIGMA-ALDRICH), 0.1% penicillin: streptomycin antibiotic mix (10.000 U:10 mg/ml, SIGMA-ALDRICH) and 250 μg/ml sterile filtered 1:100 amphotericin B solution (Sigma-Aldrich). The posterior mantle edge from mussels was collected into culture medium and cut into fragments of approximately 1–2 mm in length. […]
Esterase activity in the mussel posterior mantle edge (n = 6/experimental group) was quantified using a colorimetric assay that measures the conversion of the substrate 4-Nitrophenyl acetate to p-nitrophenolate[92]. […]

In test [2] the test system is mussel mantle edge. Nature of the test: Ex-vivo incubation of mantle edge fragments, calcium quantification by MP-AES. Set-up: species or system Mytilus galloprovincialis. The settings on record: 4 h at 19-20 °C; CALCIIa 10 μM or ouabain 2 mM alone; MP-AES at 393.366 nm; mean ± SEM; control 400.67 ±13.83 ppm; SEM. The method, then:
Figure 7 Effect of the mussel calcitonin-like peptide on (A) calcium (ppm) concentration in the mantle edge and (B) calcium uptake by mantle cells of the Mediterranean mussel. (A) The quantity of calcium (ppm) present in the mantle edge after mussel CALCIIa peptide incubation was measured using a Microwave Plasma-Atomic Emission Spectrometer (MP-AES, Agilent) at 393.366 nm. A standard curve for calcium was performed before analysing the samples. In vitro mantle assays with CALCIIa peptide and with ouabain and control (culture medium and mantle) were repeated on at least 3 independent occasions. For each assay at least ten replicates were performed and the mantle edge distal to the umbo was used (one mantle fragment per replica). Prism GraphPad v5 software was used to assess the significance of differences between the groups using a One-way Anova and Tukey’s multiple comparison test. […] C - control (no peptide or ouabain); P - peptide (10 μM); O - ouabain (2 mM), OP - ouabain (2 mM) and peptide (10 μM); PreOP - pre -stimulation for 1 hour with the peptide followed by 4 hours incubation with OP. (B) Digital photographs of the mussel mantle cells in the presence (CALCIIa, 10 μM) or absence (control) of the mussel CALCIIa peptide. Calcium ions were stained with 50 mM of Calcein (green) and cell nuclei (blue) with DAPI (Acros Organics). An increase in cellular fluorescence represents an increase in calcium uptake. Fluorescence of the CALCIIa peptide stimulated cells was 1.9 times higher than the control. The average mantle cell size was 3–4 μm and fluorescent images were taken using a Leica DM IL microscope coupled to a Visicam HDMI 6 digital camera and photographs were analysed using ImageJ software (v. 1.52a) to calculate the fluorescence intensity and for image overlay. The scale bar is indicated.
The posterior mantle edge region of the Mediterranean mussel was collected and washed in culture medium. The composition of the culture medium was as described in[91] […]

Bridge positions count the residues as written; N and C are the ends.

With “H-CTWGGGMSDEMCSTVDIDEIQRSFQVIHDRNSP-NH2 (disulfide 1-12 (inferred)) [CALCIIa, Mediterranean mussel calcitonin-like mature peptide, 33 aa, synthesized with disulphide bond and C-terminal amidation]”, the “CA esterase activity in mantle edge (in words)” value in test [1] is “No change”. For the same substance, in test [2], the “Calcium in the mantle edge after incubation” value stood at 513.38 ± 24.33 ppm.

(Values after PMC7200681, “The calcitonin-like system is an ancient regulatory system of biomineralization” (Scientific Reports, 2020).)
